Values quoted from earlier work as cited in patent US20090099261A1, “Omega-3 mixtures” (ISI Brands Inc., priority 2007, published 2009).

Conditions: dietary intake; Michael J. James et al., Am. J. Clin. Nutr. 77:1140-45 (2003)

| Structure (SMILES) | share of dietary fatty acid converted to EPA |
| --- | --- |
| CC/C=C\C/C=C\C/C=C\C/C=C\CCCCC(=O)O [SA, stearidonic acid] | 40% |
| CC/C=C\C/C=C\C/C=C\CCCCCCCC(=O)O [LNA, Linolenic acid] | ≤ 10% |
